Assay results as given in patent US12139481B2, “Compositions comprising macrocycle derivatives incorporating bridged macrocycles and methods of producing and using same” (Southwestern Oklahoma State University, priority 2015, dated 2024).
“And” between values parts separate entries of the source, which are not always exact repeats. Identical values can stand only once. Like-named read-outs stand apart in the source and are kept apart here.

Test system: Cryptococcus neoformans ATCC 90113
Assay: Antimicrobial microdilution assay against Cryptococcus neoformans (modified CLSI/NCCLS, optical density)
Format: cell-based
Conditions: for X more potent than Amphotericin B: C. neoformans, ratio of molar IC50 to Amphotericin B
Method: Summary: Various macrocyclic derivatives constructed in accordance with the presently disclosed and/or claimed inventive concept(s) were screened in vitro against Cryptococcus neoformans ATCC 90113 using a microdilution assay. The minimum fungicidal concentration (MFC), the lowest test concentration that kills the organism, was determined in broth media.
Antimicrobial assay: Cryptococcus neoformans ATCC 90113 were obtained from the American Type Culture Collection (Manassas, VA.). The susceptibility testing was performed using a modified version of the CLSI (formerly NCCLS) methods (see below), and optical density was used to monitor growth. Samples were serially diluted in 20% DMSO/saline and transferred in duplicate to 96-well flat bottom microplates. Microbial inocula were prepared by correcting the OD630 of cell/spore suspensions in incubation broth RPMI at pH 6.0 to afford final desired target inocula. Amphotericin B (“AMB;” ICN Biomedicals, OH) was used as drug control. The organism concentration was read at 630 nm using the Biotek Powerwave XS plate reader (Bio-Tek instruments, VT) prior to and after incubation. Minimum fungicidal concentrations were determined by removing 5 μL from each clear well, transferring to agar, and incubating until growth was seen. The MFC/MBC is defined as the lowest test concentration that kids the organism (allows no growth on agar).
References for NCCLS methods referenced above: 1 NCCLS. Reference method for broth dilution antifungal susceptibility testing of yeasts, Vol. 22. Approved standard, 2nd ed. Wayne: National Committee for Clinical Laboratory Standards; 2002: 1-51. 2 NCCLS. Reference method for broth dilution antifungal susceptibility testing of conidium forming filamentous fungi, Vol. 18. Proposed standard M38-P. Wayne: National Committee for Clinical Laboratory Standards; 1998: 1-39. 3 NCCLS. Methods for dilution antimicrobial susceptibility tests for bacteria that grow aerobically, Vol. 20. NCCLS Document M7-A5. Wayne: National Committee for Clinical Laboratory Standards; 2000: 1-58.
The term “IC50” as used herein will be understood to refer to a test concentration in mol/L that affords 50% inhibition of the microbe relative to negative and positive controls. […] The abbreviation “MFC” as used herein will be understood to refer to a minimum fungicidal concentration, or the lowest test concentration in mol/L that kills the organism. All IC50s are calculated using the XLfit® fit curve fitting software (ID Business Solutions Ltd, Guildford, Surrey, UK).
General Experimental Procedures. All organisms were obtained from the American Type Culture Collection (Manassas, VA) and include the fungi Candida albicans ATCC 90028, C. glabrata ATCC 90030, C. krusei ATCC 6258, and Cryptococcus neoformans ATCC 90113, and the bacteria Staphylococcus aureus ATCC 29213 and methicillin-resistant S. aureus ATCC 33591 (MRS). All organisms were tested using modified versions of the CLSI (formerly NCCLS) methods. For all organisms, optical density was used to monitor growth (NCCLS, Reference Method for Broth Dilution Antifungal Susceptibility Testing of Yeasts; Approved Standard M27-A2. National Committee on Clinical Laboratory Standards, 2002 22 (15); and NCCLS, Methods for Dilution Antimicrobial Susceptibility Tests for Bacteria that Grow Aerobically; Approved Standard, Seventh Edition M7-A7. National Committee on Clinical Laboratory Standards, 2006. 26(2)).
Samples (dissolved in DMSO) were serially-diluted in 20% DMSO/saline and transferred (10 μL) in duplicate to 96 well flat bottom microplates.

[1] = in vitro, C. neoformans ATCC 90113
[2] = in vitro, C. neoformans ATCC 90113, read-out: C. neoformans IC50 (mol/L)

SMILES	X more potent than Amphotericin B	C. neoformans IC50 [1]	IC50 [2]	IC50 (read-out: IC50 against C. neoformans)
C1CNCCN2CCCNCCN(C1)CC2.CC(=O)[O-].F[P-](F)(F)(F)(F)F.[Co+2] [ANC25, [Co(H2Bcyclam)(OAc)]PF6]	0.03	4.360 µg/mL	8.91 µM	–
C1CN2CCNCCN(CCN1)CC2.CC(=O)[O-].F[P-](F)(F)(F)(F)F.[Co+2] [ANC27A, [Co(H2Bcyclen)(OAc)]PF6]	0.02	5.030 µg/mL	10.9 µM	–
CN1CCCN2CCN(C)CCN(CC1)CC2.F[P-](F)(F)(F)(F)F.[Cl-].[Cl-].[Co+3] [DGJ031, [Co(B13N4)Cl2]PF6]	0.02	4.980 µg/mL	9.67 µM	–
CN1CCCN2CCN(C)CCN(CC1)CC2.F[P-](F)(F)(F)(F)F.[Cl-].[Cl-].[Mn+3] [DLM10, [Mn(B13N4)Cl2]PF6]	0.01	9.522 µg/mL	18.6 µM	–
CN1CCN2CCN(C)CCN(CC1)CC2.F[P-](F)(F)(F)(F)F.[Cl-].[Cl-].[Co+3] [DT06#2, [Co(Bcyclen)Cl2]PF6]	0.04	3.390 µg/mL	6.78 µM	–
CC(=O)[O-].CC(=O)[O-].CN1CCN2CCN(CC1)CCN(Cc1ccc(CN3CCN4CCN(C)CCN(CC4)CC3)cc1)CC2.F[P-](F)(F)(F)(F)F.F[P-](F)(F)(F)(F)F.[Cu+2].[Cu+2] [JAV06, [Cu2(p-CB-Cyclens)(OAc)2][PF6]2]	0.02	10.900 µg/mL	10.3 µM	–
Clc1ccc2c(N3CCNCCN(c4ccnc5cc(Cl)ccc45)CCNCC3)ccnc2c1.[Cl-].[Cl-].[Mn+2] [K-PAA2-0004-P8-TJH410, {[Mn(4,10-bis(7-chloroquinoline)cyclen]Cl2}]	0.04	4.123 µg/mL	6.64 µM	–
CN1CCN2CCN(CC1)CCN(Cc1ccccn1)CC2.[Cl-].[Cl-].[Mn+2] [KRW37, [Mn(pic1Me1-CB-Cyclen)Cl]Cl]	0.03	3.076 µg/mL	7.17 µM	–
CN1CCCN2CCN(CCCN(Cc3ccc(CN4CCCN5CCN(C)CCCN(CC5)CC4)cc3)CC2)CC1 [KS23, p-CB-cyclams]	0.02	8.200 µg/mL	14.1 µM	–
CC(=O)[O-].CC(=O)[O-].CN1CCCN2CCN(CCCN(Cc3ccc(CN4CCCN5CCN(C)CCCN(CC5)CC4)cc3)CC2)CC1.F[P-](F)(F)(F)(F)F.F[P-](F)(F)(F)(F)F.[Co+2].[Co+2] [KS40, [Co2(p-CB-cyclams)(OAc)2](PF6)2]	13 and 13.21	0.020 µg/mL	≤ 0.018 µM	< 0.018 µM
CC(=O)[O-].CC(=O)[O-].F[P-](F)(F)(F)(F)F.F[P-](F)(F)(F)(F)F.O.O.[Zn+2].[Zn+2].c1cc(CN2CCNCCN3CCN(CC3)CC2)cc(CN2CCNCCN3CCN(CC3)CC2)c1 [OB37, [Zn2(m-SB-Cyclens)(OAc)2][PF6]2•2H2O]	0.32	≤ 0.800 µg/mL	–	–
c1cc(CN2CCNCCCN3CCN(CC3)CC2)cc(CN2CCNCCCN3CCN(CC3)CC2)c1 [OB46, m-SB-Homocyclens]	0.03	4.850 µg/mL	9.21 µM	–
F[P-](F)(F)(F)(F)F.F[P-](F)(F)(F)(F)F.F[P-](F)(F)(F)(F)F.F[P-](F)(F)(F)(F)F.O.O.[Cu+2].[Cu+2].c1cc(CN2CCNCCCN3CCN(CC3)CC2)ccc1CN1CCNCCCN2CCN(CC2)CC1 [OB49, [Cu2(p-SB-Homocyclens)][PF6]4•2H2O]	0.38	≤ 0.800 µg/mL	0.63 µM	–
CC(=O)[O-].CC(=O)[O-].F[P-](F)(F)(F)(F)F.F[P-](F)(F)(F)(F)F.O.[Co+2].[Co+2].c1cc(CN2CCNCCCN3CCN(CC3)CC2)cc(CN2CCNCCCN3CCN(CC3)CC2)c1 [OB55, [Co2(m-SB-Homocyclens)(OAc)2][PF6]2•H2O]	0.05	5.120 µg/mL	4.78 µM	–
CC(=O)[O-].CN1CCN2CCN(CC1)CCN(Cc1cc(Cl)nc(Cl)c1)CC2.F[P-](F)(F)(F)(F)F.[Co+2] [OB118, [Co(Me1dcp1-CB-cyclen)(OAc)]PF6]	0.03	6.050 µg/mL	9.52 µM	–
CN1CCCN2CCN(C)CCCN(CC1)CC2.F[P-](F)(F)(F)(F)F.[Cl-].[Cl-].[Co+3] [SAH06#2, [Co(Bcyclam)Cl2]PF6]	0.01	19.220 µg/mL	36.3 µM	–
c1ccc2[nH]c(CN3CCNCCN4CCN(CC4)CC3)nc2c1 [SJA219, SB-BI-cyclen]	0.01	5.780 µg/mL	17.6 µM	–
CN1CCN2CCN(CC1)CCN(Cc1nc3ccccc3[nH]1)CC2 [SJA220, CB-BI-cyclen]	0.02	5.160 µg/mL	15.1 µM	–
[Cl-].[Cl-].[Zn+2].c1ccc2[nH]c(CN3CCNCCN4CCN(CC4)CC3)nc2c1 [SJA222, [Zn(SB-BI-cyclen)(Cl)2]]	0.03	2.610 µg/mL	–	–
CC(=O)[O-].CC(=O)[O-].CN1CCN2CCN(CC1)CCN(Cc1nc3ccccc3[nH]1)CC2.[Zn+2] [SJA225, [Zn(CB-BI-cyclen)(OAc)2]]	0.01	5.690 µg/mL	–	–
CN1CCN2CCN(CC1)CCN(Cc1nc3ccccc3[nH]1)CC2.[Cl-].[Cl-].[Mn+2] [SJA227, [Mn(CB-BI-cyclen)(Cl)2]]	0.04	1.930 µg/mL	5.63 µM	–
O=[N+]([O-])c1ccc(Cn2c(CN3CCNCCN4CCN(CC4)CC3)nc3ccccc32)cc1 [SJA229, SB-BINO2-cyclen]	0.06	1.890 µg/mL	4.08 µM	–
CC(=O)[O-].CC(=O)[O-].O=[N+]([O-])c1ccc(Cn2c(CN3CCNCCN4CCN(CC4)CC3)nc3ccccc32)cc1.[Ni+2] [SJA232, [Ni(SB-BINO2-cyclen)(OAc)2]]	0.02	5.070 µg/mL	10.9 µM	–
C1CNCCN2CCCNCCN(C1)CCC2.O.[Cl-].[Cl-].[Cl-].[Fe+3] [SLK36, Fe(H2PBCyclam)Cl3•H2O]	0.03	3.330 µg/mL	7.92 µM	–
C1CNCCN2CCCNCCN(C1)CCC2.O.O.O.[Cl-].[Cl-].[Cl-].[Mn+3] [SLK37, Mn(H2PBCyclam)Cl3•3H2O]	0.06	1.780 µg/mL	3.91 µM	–
